Measurements: patent publication US6833353B1, “Use of immunosuppressants for MMP mediated diseases” (Fujisawa Pharmaceutical Co., Ltd., priority 1998, dated 2004)
Marks after values point to notes of the source that are not given here.

Assays:
Format in all cases: in vivo, Lewis rats
collagenase = assay: Collagenolytic activity in granulomatous tissue extract, implant model; details: day 14
Method: (§1) Bone and excess tissue overlying the cartilage was removed under sterile conditions, in an airflow hood. The septum was washed in 70% ethanol before the cartilage was cut to a weight of 40×2mg. The cartilages were wrapped tightly in sterile cotton squares and soaked in 0.1 ml of a 10 mg/ml homogenized suspension of heat-killed Mycobacterium tuberculosis H37RA (Difco) in saline. Eight cartilages were stored in −20° C., these were to measure the levels of collagen in non-implanted cartilages.
(§2) Eight weeks old female Lewis rats were anaesthetized using halothane. The stomach area was shaved and swabbed with ethanol. […]
(§3) The granulomatous tissues were homogenized in 1 ml of 50 mM Tris, pH 7.5 containing 5 mM CaCl2, 0.1% Triton X-100 and 0.02% NaN3) After centrifugation of the extract at 15000 rpm for 10 min to remove debris, the supernatant was assayed for collagenolytic activity, gelatinolytic activity, tumor necrosis factor-α (TNF-α) level and Interferon-γ (IFN-γ) level. Collagenolytic and gelatinolytic activities in the extracts were measured using commercial assay kits (YAGAI, Japan). Cytokines levels were also measured using ELISA kits (Cosmo Bio, Japan). The protein contents in the extracts was determined using the method of Lowry.
(§4) Data is expressed as mean±SEM. The significance of differences was determined by Dunnett's multiple comparison test (*p<0.05, **p<0.01).

gelatinase = assay: Gelatinolytic activity in granulomatous tissue extract, implant model; details: day 14
Method: as §1, §2, §3, §4

IFN-γ = IFN-γ level in granulomatous tissue extract (ELISA), implant model; details: day 14
Method: as §1, §2, §3, §4

TNF-α = TNF-α level in granulomatous tissue extract (ELISA), implant model; details: day 14
Method: as §1, §2, §3, §4

cartilage degradation = assay: Cartilage degradation in cotton-wrapped cartilage implant model (hydroxyproline content of implanted cartilage)

With C=CC[C@@H]1/C=C(\C)C[C@H](C)C[C@H](OC)[C@H]2O[C@@](O)(C(=O)C(=O)N3CCCC[C@H]3C(=O)O[C@H](/C(C)=C/[C@@H]3CC[C@@H](O)[C@H](OC)C3)[C@H](C)[C@@H](O)CC1=O)[C@H](C)C[C@@H]2OC [FK506, 17-allyl-1,14-dihydroxy-12-[2-(4-hydroxy-3-methoxycyclohexyl)-1-methylvinyl]-23,25-dimethoxy-13,19,21,27-tetramethyl-11,28-dioxa-4-azatricyclo[22.3.1.0^4,9] octacos-18-ene-2,3,10,16-tetraone] the “inhibition (%) collagenase” value (collagenase; 1.0 mg/kg po once daily) was 7.7%, the “inhibition (%) collagenase” value (collagenase; 3.2 mg/kg po once daily) was 29.8% and the “inhibition (%) gelatinase” value (gelatinase; 1.0 mg/kg po once daily) was 67.9* %. For the same compound, the “inhibition (%) gelatinase” value (gelatinase; 3.2 mg/kg po once daily) was 82.1** %, the “inhibition (%) IFN-γ” value (IFN-γ; 1.0 mg/kg po once daily) was 58.1% and the “inhibition (%) IFN-γ” value (IFN-γ; 3.2 mg/kg po once daily) was 73.4* %. For the same compound, the “inhibition (%) TNF-α” value (TNF-α; 1.0 mg/kg po once daily) was 43.9** %, the “inhibition (%) TNF-α” value (TNF-α; 3.2 mg/kg po once daily) was 56.6** % and the “Recovery (%) of Hydroxyproline” value (cartilage degradation; 3.2 mg/kg po once daily, 14 days, implanted bovine nasal cartilage, rat) was 61.9** %. The “inhibition of the decrease of hydroxyproline contents in cartilage” value (cartilage degradation; 3.2 mg/kg po, uid, rat implant model) was 62%.
